# PubChem BioAssay (NCI)
# Where “and” joins values, the source holds several entries; their conditions need not be identical. Identical values can stand only once.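 Interpolation was linear, between the two tested concentrations surrounding the appropriate level; five concentrations were tested over 48 hours in 96-well plates. The concentration for 50% growth inhibition is given as GI50. The concentration for full growth arrest is given as TGI.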
# What was measured:
# Experiment in all cases: NCI tumour cell line growth inhibition, 48 h
# 786-0 renal = system: 786-0 renal
# A498 renal = system: A498 renal
# ACHN renal = system: ACHN renal
# BT-549 breast = system: BT-549 breast
# CAKI-1 renal = system: CAKI-1 renal
# CCRF-CEM leukemia = system: CCRF-CEM leukemia
# COLO 205 colon = system: COLO 205 colon
# DU-145 prostate = system: DU-145 prostate
# HCC-2998 colon = system: HCC-2998 colon
# HCT-116 colon = system: HCT-116 colon
# HCT-15 colon = system: HCT-15 colon
# HL-60(TB) leukemia = system: HL-60(TB) leukemia
# HOP-62 NSCLC = system: HOP-62 NSCLC
# HOP-92 NSCLC = system: HOP-92 NSCLC
# HS 578T breast = system: HS 578T breast
# HT29 colon = system: HT29 colon
# IGROV1 ovarian = system: IGROV1 ovarian
# K-562 leukemia = system: K-562 leukemia
# KM12 colon = system: KM12 colon
# LOX IMVI melanoma = system: LOX IMVI melanoma
# M14 melanoma = system: M14 melanoma
# MALME-3M melanoma = system: MALME-3M melanoma
# MCF7 breast = system: MCF7 breast
# MDA-MB-231 breast = system: MDA-MB-231 breast
# MDA-MB-435 = system: MDA-MB-435
# MOLT-4 leukemia = system: MOLT-4 leukemia
# NCI-H226 lung = system: NCI-H226 lung
# NCI-H23 lung = system: NCI-H23 lung
# NCI-H460 lung = system: NCI-H460 lung
# NCI-H522 lung = system: NCI-H522 lung
# NCI/ADR-RES ovarian = system: NCI/ADR-RES ovarian
# OVCAR-3 ovarian = system: OVCAR-3 ovarian
# OVCAR-4 ovarian = system: OVCAR-4 ovarian
# OVCAR-5 ovarian = system: OVCAR-5 ovarian
# OVCAR-8 ovarian = system: OVCAR-8 ovarian
# PC-3 prostate = system: PC-3 prostate
# RPMI-8226 leukemia = system: RPMI-8226 leukemia
# SF-268 CNS = system: SF-268 CNS
# SF-295 CNS = system: SF-295 CNS
# SF-539 CNS = system: SF-539 CNS
# SK-MEL-28 melanoma = system: SK-MEL-28 melanoma
# SK-MEL-5 melanoma = system: SK-MEL-5 melanoma
# SK-OV-3 ovarian = system: SK-OV-3 ovarian
# SN12C renal = system: SN12C renal
# SNB-19 CNS = system: SNB-19 CNS
# SR leukemia = system: SR leukemia
# SW-620 colon = system: SW-620 colon
# T-47D breast = system: T-47D breast
# TK-10 renal = system: TK-10 renal
# U251 CNS = system: U251 CNS
# UACC-62 melanoma = system: UACC-62 melanoma
# UO-31 renal = system: UO-31 renal
# EKVX NSCLC = system: EKVX NSCLC
# RXF 393 renal = system: RXF 393 renal
# SK-MEL-2 melanoma = system: SK-MEL-2 melanoma
# SNB-75 CNS = system: SNB-75 CNS
# UACC-257 melanoma = system: UACC-257 melanoma
structure (smiles),measurement,setting,value
CCOC(=O)c1cc2c(n1Cc1ccccc1OC)-c1oncc1CCC2,GI50,786-0 renal,> 100 µM
same,TGI,786-0 renal,> 100 µM
same,GI50,A498 renal,3.46 µM
same,TGI,A498 renal,> 100 µM
same,GI50,ACHN renal,16.6 µM
same,TGI,ACHN renal,> 100 µM
same,GI50,BT-549 breast,7.73 µM
same,TGI,BT-549 breast,> 100 µM
same,GI50,CAKI-1 renal,3.51 µM
same,TGI,CAKI-1 renal,> 100 µM
same,GI50,CCRF-CEM leukemia,2.87 µM
same,TGI,CCRF-CEM leukemia,> 100 µM
same,GI50,COLO 205 colon,0.878 µM
same,TGI,COLO 205 colon,3.97 µM
same,GI50,DU-145 prostate,5.27 µM
same,TGI,DU-145 prostate,> 100 µM
same,GI50,HCC-2998 colon,> 100 µM
same,TGI,HCC-2998 colon,> 100 µM
same,GI50,HCT-116 colon,3.79 µM
same,TGI,HCT-116 colon,> 100 µM
same,GI50,HCT-15 colon,2.24 µM
same,TGI,HCT-15 colon,> 100 µM
same,GI50,HL-60(TB) leukemia,3.04 µM
same,TGI,HL-60(TB) leukemia,> 100 µM
same,GI50,HOP-62 NSCLC,1.89 µM
same,TGI,HOP-62 NSCLC,9.9 µM
same,GI50,HOP-92 NSCLC,0.309 µM
same,TGI,HOP-92 NSCLC,7.43 µM
same,GI50,HS 578T breast,3.38 µM
same,TGI,HS 578T breast,> 100 µM
same,GI50,HT29 colon,0.912 µM
same,TGI,HT29 colon,> 100 µM
same,GI50,IGROV1 ovarian,1.99 µM
same,TGI,IGROV1 ovarian,> 100 µM
same,GI50,K-562 leukemia,1.59 µM
same,TGI,K-562 leukemia,> 100 µM
same,GI50,KM12 colon,2.1 µM
same,TGI,KM12 colon,> 100 µM
same,GI50,LOX IMVI melanoma,7.64 µM
same,TGI,LOX IMVI melanoma,> 100 µM
same,GI50,M14 melanoma,3.67 µM
same,TGI,M14 melanoma,> 100 µM
same,GI50,MALME-3M melanoma,3.08 µM
same,TGI,MALME-3M melanoma,> 100 µM
same,GI50,MCF7 breast,0.716 µM
same,TGI,MCF7 breast,> 100 µM
same,GI50,MDA-MB-231 breast,9.12 µM
same,TGI,MDA-MB-231 breast,> 100 µM
same,GI50,MDA-MB-435,0.351 µM
same,TGI,MDA-MB-435,> 100 µM
same,GI50,MOLT-4 leukemia,5.68 µM
same,TGI,MOLT-4 leukemia,> 100 µM
same,GI50,NCI-H226 lung,> 100 µM
same,TGI,NCI-H226 lung,> 100 µM
same,GI50,NCI-H23 lung,8.52 µM
same,TGI,NCI-H23 lung,> 100 µM
same,GI50,NCI-H460 lung,3.89 µM
same,TGI,NCI-H460 lung,> 100 µM
same,GI50,NCI-H522 lung,0.351 µM
same,TGI,NCI-H522 lung,2.88 µM
same,GI50,NCI/ADR-RES ovarian,1.36 µM
same,TGI,NCI/ADR-RES ovarian,> 100 µM
same,GI50,OVCAR-3 ovarian,0.874 µM
same,TGI,OVCAR-3 ovarian,6.49 µM
same,GI50,OVCAR-4 ovarian,9.35 µM
same,TGI,OVCAR-4 ovarian,> 100 µM
same,GI50,OVCAR-5 ovarian,> 100 µM
same,TGI,OVCAR-5 ovarian,> 100 µM
same,GI50,OVCAR-8 ovarian,3.85 µM
same,TGI,OVCAR-8 ovarian,> 100 µM
same,GI50,PC-3 prostate,2.48 µM
same,TGI,PC-3 prostate,> 100 µM
same,GI50,RPMI-8226 leukemia,4.11 µM
same,TGI,RPMI-8226 leukemia,> 100 µM
same,GI50,SF-268 CNS,46.2 µM
same,TGI,SF-268 CNS,> 100 µM
same,GI50,SF-295 CNS,1.38 µM
same,TGI,SF-295 CNS,6.1 µM
same,GI50,SF-539 CNS,2.48 µM
same,TGI,SF-539 CNS,8.57 µM
same,GI50,SK-MEL-28 melanoma,> 100 µM
same,TGI,SK-MEL-28 melanoma,> 100 µM
same,GI50,SK-MEL-5 melanoma,2.61 µM
same,TGI,SK-MEL-5 melanoma,> 100 µM
same,GI50,SK-OV-3 ovarian,2.7 µM
same,TGI,SK-OV-3 ovarian,19.7 µM
same,GI50,SN12C renal,> 100 µM
same,TGI,SN12C renal,> 100 µM
same,GI50,SNB-19 CNS,64.7 µM
same,TGI,SNB-19 CNS,> 100 µM
same,GI50,SR leukemia,0.438 µM
same,TGI,SR leukemia,> 100 µM
same,GI50,SW-620 colon,2.02 µM
same,TGI,SW-620 colon,> 100 µM
same,GI50,T-47D breast,2.46 µM
same,TGI,T-47D breast,> 100 µM
same,GI50,TK-10 renal,67.8 µM
same,TGI,TK-10 renal,> 100 µM
same,GI50,U251 CNS,3.78 µM
same,TGI,U251 CNS,> 100 µM
same,GI50,UACC-62 melanoma,3.37 µM
same,TGI,UACC-62 melanoma,> 100 µM
same,GI50,UO-31 renal,6.53 µM
same,TGI,UO-31 renal,> 100 µM
COc1cccc(/C=C/C(=O)N2CC(CCl)c3c2cc(N)c2ccccc32)c1 (stereo unspecified),TGI,A498 renal,0.0342 µM
same,TGI,ACHN renal,0.0024 µM
same,GI50,BT-549 breast,0.0142 µM
same,TGI,EKVX NSCLC,0.145 µM and 0.0415 µM
same,TGI,HCC-2998 colon,0.0166 µM
same,TGI,HCT-116 colon,1.27 µM
same,TGI,HCT-15 colon,0.224 µM
same,TGI,HS 578T breast,0.0409 µM
same,TGI,HT29 colon,20 µM
same,TGI,K-562 leukemia,> 100 µM
same,TGI,KM12 colon,0.0352 µM and 0.161 µM
same,TGI,LOX IMVI melanoma,0.0065 µM
same,TGI,M14 melanoma,0.105 µM
same,TGI,MCF7 breast,0.00568 µM
same,TGI,NCI-H226 lung,0.0425 µM
same,TGI,NCI-H23 lung,0.0124 µM
same,TGI,NCI-H460 lung,0.00325 µM
same,TGI,NCI-H522 lung,0.00889 µM
same,TGI,OVCAR-3 ovarian,1.72 µM
same,TGI,OVCAR-4 ovarian,0.141 µM
same,TGI,OVCAR-5 ovarian,1.5 µM
same,TGI,PC-3 prostate,0.0562 µM and 0.132 µM
same,TGI,RPMI-8226 leukemia,> 100 µM
same,TGI,RXF 393 renal,0.00342 µM
same,TGI,SF-295 CNS,0.00953 µM
same,TGI,SK-MEL-2 melanoma,0.0224 µM
same,TGI,SK-OV-3 ovarian,1.16 µM
same,TGI,SNB-19 CNS,> 100 µM
same,TGI,SNB-75 CNS,0.0153 µM
same,TGI,SW-620 colon,> 100 µM
same,TGI,T-47D breast,3.59 µM
same,TGI,U251 CNS,0.37 µM
same,TGI,UACC-62 melanoma,0.0224 µM
same,TGI,UO-31 renal,> 100 µM
CN1/C(=C/C=C/c2n(Cc3ccc4ccccc4c3)c(Cl)c(Cl)[n+]2Cc2ccc3ccccc3c2)Oc2ccccc21,GI50,A498 renal,0.198 µM
same,TGI,A498 renal,0.756 µM
same,GI50,ACHN renal,0.494 µM
same,TGI,ACHN renal,1.67 µM
same,GI50,CAKI-1 renal,0.553 µM
same,TGI,CAKI-1 renal,1.83 µM
same,GI50,DU-145 prostate,0.403 µM
same,TGI,DU-145 prostate,1.54 µM
same,GI50,HCT-116 colon,0.255 µM
same,TGI,HCT-116 colon,1.08 µM
same,GI50,HCT-15 colon,1.24 µM
same,TGI,HCT-15 colon,2.68 µM
same,GI50,HOP-92 NSCLC,0.212 µM
same,TGI,HOP-92 NSCLC,0.685 µM
same,GI50,MALME-3M melanoma,0.201 µM
same,TGI,MALME-3M melanoma,0.625 µM
same,GI50,MDA-MB-435,0.327 µM
same,TGI,MDA-MB-435,1.09 µM
same,GI50,OVCAR-5 ovarian,0.373 µM
same,TGI,OVCAR-5 ovarian,1.59 µM
same,GI50,SK-MEL-28 melanoma,0.505 µM
same,TGI,SK-MEL-28 melanoma,1.75 µM
same,GI50,SNB-75 CNS,0.176 µM
same,TGI,SNB-75 CNS,0.731 µM
same,GI50,SW-620 colon,0.294 µM
same,TGI,SW-620 colon,1.15 µM
same,GI50,UACC-257 melanoma,0.338 µM
same,TGI,UACC-257 melanoma,1.44 µM
same,GI50,UO-31 renal,1.35 µM
same,TGI,UO-31 renal,2.65 µM
Cc1nccn1CC1CCc2c(c3ccccc3n2C)C1=O (stereo unspecified),GI50,786-0 renal,78.8 µM
same,GI50,BT-549 breast,77.3 µM
same,GI50,COLO 205 colon,78.7 µM
same,GI50,HCT-116 colon,65.6 µM
same,GI50,HT29 colon,27.9 µM
same,TGI,HT29 colon,49.2 µM
same,GI50,MDA-MB-435,90.2 µM
same,GI50,NCI-H460 lung,45.7 µM
same,TGI,NCI-H460 lung,68.1 µM
same,GI50,OVCAR-3 ovarian,90.3 µM
same,GI50,OVCAR-5 ovarian,95.3 µM
same,GI50,OVCAR-8 ovarian,49.8 µM
same,GI50,SF-295 CNS,39.1 µM
same,TGI,SF-295 CNS,60.9 µM
same,GI50,SF-539 CNS,73.7 µM
same,GI50,SK-MEL-5 melanoma,66.8 µM
same,GI50,SN12C renal,87.9 µM
same,GI50,SNB-75 CNS,56.5 µM
same,GI50,T-47D breast,71.1 µM
same,GI50,U251 CNS,81 µM
same,GI50,UACC-257 melanoma,42.3 µM
same,TGI,UACC-257 melanoma,64.3 µM
same,GI50,UO-31 renal,78.5 µM
